Experimental data from patent publication US9950026B2, “Methods for reducing oxidative damage” (Cornell Research Foundation, Inc., priority 2004, dated 2018).
Where a SMILES comes first, the peptide text is derived from it. [ ]: non-standard residue; d: D form. Dmt = Cc1cc(O)cc(C)c1C[C@H](N)C(=O)O

Tests used:
[1] = Scavenging of H2O2, luminol-induced chemiluminescence; format: biochemical; details: H2O2 4.4 nmol, 20 min, 37° C.
Method: Effect of SS-02 and SS-05 (Dmt-D-Arg-Phe Orn-NH2) on H2O2 as measured by luminol-induced chemiluminescence, 25 μM luminol and 0.7 IU horseradish peroxidase were added to the solution of H2O2 (4.4 nmol) and peptide, and chemiluminescence was monitored with a Chronolog Model 560 aggregometer (Havertown, Pa.) for 20 min at 37° C.

[2] = system: isolated guinea pig hearts; experiment: Isolated hearts, 18 h cold ischemia followed by warm reperfusion; details: 1 nM SS-31 in cardioplegic solution, 18 h at 4° C.
Method: Isolated guinea pig hearts were perfused in a retrograde manner in a Langendorff apparatus with a cardioplegic solution (St. Thomas solution) without or with SS-31 (1 nM) for 3 min. and then clamped and stored at 4° C. for 18 h. Subsequently, the hearts were remounted in the Langendorff apparatus and reperfused with Krebs-Henseleit solution at 34° C. for 90 min. Hearts were then rapidly fixed and paraffin-embedded.
(B) Immunohistochemical analysis of HNE-modified proteins in paraffin sections from guinea pig hearts stored without (a) or with (b) SS-31 (1 nM). (c) Background staining without primary antibody.
Apoptosis was assessed by the TUNEL stain (green) and nuclei are visualized by DAPI (blue).

[3] = system: islet cells isolated from mouse pancreas; experiment: Islet isolation with SS-31 in isolation buffers (TMRM; annexin V/PI flow cytometry); format: cell-based; details: SS-31 1 nM in all isolation buffers
Method: Pancreas was harvested from mice and islet cells were prepared according standard procedures. In some studies, SS-31 (1 nM) was added to all isolation buffers used throughout the isolation procedure. Mitochondrial potential was measured using TMRM (red) and visualized by confocal microscopy.
Pancreas was harvested from mice and islet cells were prepared according standard procedures. In some studies, SS-31 (1 nM) was added to all isolation buffers used throughout the isolation procedure. Apoptosis was ascertained by flow cytometry using annexin V and necrosis by propidium iodide.

[4] = system: mice treated with MPTP; experiment: MPTP animal model of Parkinson's Disease; format: in vivo; details: MPTP 3 x 10 mg/kg, sacrificed one week later
Method: MPTP is a neurotoxin that selectively destroys striatal dopamine neurons and can be used as an animal model of Parkinson's Disease. MPP^+, a metabolite of MPTP, targets mitochondria, inhibits complex I of the electron transport chain and increases ROS production. MPP^+ is used in cell culture studied because cells are unable to metabolize MPTP to the active metabolite. MPTP is used for animal studies.
Three doses of MPTP (10 mg/kg) was given to mice (n=12) 2 h apart. SS-31 was administered 30 min before each MPTP injection, and at 1 h and 12 h after the last MPTP injection. Animals were sacrificed one week later and striatal brain regions were immunostained for tyrosine hydroxylase activity.
Three doses of MPTP (10 mg/kg) was given to mice (n=12) 2 h apart. SS-31 was administered 30 min before each MPTP injection, and at 1 h and 12 h after the last MPTP injection.
Animals were sacrificed one week later and dopamine, DOPAC and HVA levels were quantified by high pressure liquid chromatography.

[5] = system: N2A cells; experiment: Caspase-9 activity (FLICA) after tBHP; format: cell-based, murine; details: 50 μM tBHP, 12 h, 1 nM SS-31
Method: FIG. 21A-B. SS-31 prevented caspase activation in N2A cells treated with tBHP. […] (B)(a-c) N2A cells were treated with 50 μM tBHP for 12 h and stained with caspase-9 FLICA™ kit containing red fluorescent inhibitor SR-LEHD-FMK and Hoechst 33342.

[6] = system: SH-SY5Y cells; experiment: Mitochondrial function, MTT assay, after tBHP; format: cell-based, human; details: tBHP 50-100 μM, 24 h
Method: FIG. 23A-23B. SS-31 protected against tBHP-induced mitochondrial viability. (A) SS-31 protected mitochondrial viability in N2A cells treated with tBHP for 24 h. Mitochondrial viability was evaluated using the MTT assay (*P<0.01 compared to untreated cells, *P<0.05, P<0.01 compared to tBHP alone). […]
Only viable mitochondria containing NADPH dehydrogenase activity are capable of cleaving MTT to the formazan. A 50 μM tBHP induced 50% loss of mitochondrial function in N2A cells (FIG. 23A, […]) and 30% loss of mitochondrial function in SH-SY5Y cells (FIG. 23B, P<0.01). […] Treatment of N2A cells with SS-31 alone had no effect on mitochondrial function.

[7] = system: G93A mice; experiment: Lumbar spinal cord cell counts and immunostaining in ALS mice; format: in vivo
Source text: FIG. 27. Attenuation of motor neuron loss by SS-31 in the ventral horn of the lumbar spinal cord of G93A mice. Photomicrographs show cresyl violet stained sections through the ventral horn of the lumbar spinal cord from non-transgenic control (A) and G93A mice treated with vehicle (PBS) (B) or SS-31 (C) at 110 days of age. […] Values are mean±standard error of means.
(§1) FIG. 28A-28C. 4-hydroxynonenol immunostaining. Photomicrographs of representative sections through the ventral horn of the lumbar spinal cord of wild-type control (A), and G93A mice treated with vehicle (B) or SS-31 (C) show generalized reduction of 4-hydroxynonenal staining in neurons and neurophils in drug-treated mice.
as §1, with “29A-29C. Nitrotyrosine” for “28A-28C. 4-hydroxynonenol”, “nitrotyrosine” for “4-hydroxynonenal”

[8] = system: Diabetic DBA/2 mice; experiment: Marginal islet cell mass transplantation model; format: in vivo
Method: FIG. 35A-35C. Reversal of diabetes following transplantation of a marginal mass of syngeneic islets. Diabetic DBA/2 mice received 200 syngeneic islet cells under the right kidney capsule. Reversal of diabetes was defined as random nonfasting blood glucose levels below 200 mg/dl on 3-consecutive days. (A) Blood glucose levels of each individual control mouse following transplantation of 200 syngeneic islets. (B) Blood glucose levels of each individual SS-31 treated mouse following transplantation of 200 syngeneic islets. (C) Reversal of diabetes following transplantation of a marginal islet cell mass in SS-31 treatment vs. control. Number of normoglycemic mice by day 1, 3, 5, 10 and 14 post transplantation and two-tailed P-valued calculated using chi-squared bivariate analysis are shown.
In a marginal islet cell mass transplantation model, 0 of 8 recipients of islets isolated from pancreas harvested from the control mice had successful reversal of hyperglycemia (defined as three consecutive blood glucose levels<200 mg/dl), whereas sustained normoglycemia occurred in 5 of ten recipients of islets isolated from pancreas from the SS-31 treated donor mice (FIG. 35).

Compound | luminol response (H2O2 scavenging) [1] | apoptosis in endothelial cells and myocytes (TUNEL) [2] | coronary flow [2] | lipid peroxidation (HNE-modified proteins) [2] | apoptosis (annexin V) [3] | mitochondrial potential (TMRM) [3] | viability [3] | loss of dopamine neurons (tyrosine hydroxylase immunostaining) [4] | striatal DOPAC levels [4] | striatal HVA levels [4] | striatal dopamine levels [4] | cells showing caspase-9 staining [5] | tBHP-induced mitochondrial toxicity (MTT) [6] | cell loss in the lumbar spinal cord (stereological cell counts) ([7]; mouse, in vivo) | 3-nitrotyrosine immunostaining (protein nitration) ([7]; spinal cord) | 4-hydroxynonenenal immunostaining (lipid peroxidation) ([7]; spinal cord) | recipients with sustained normoglycemia ([8]; islets from SS-31 treated donor mice) | effect of discontinuation of SS-31 treatment on day 10 ([8]; mouse, in vivo) | time of reversal of hyperglycemia post-transplant ([8]; mouse, in vivo) [days]
2′,6′-Dmt-Arg-Phe-Lys-NH2 [SS-02] | dose-dependently inhibited |  |  |  |  |  |  |  |  |  |  |  |  |  |  |  |  |  | 
Cc1cc(O)cc(C)c1C[C@H](NC(=O)[C@H](N)CCCNC(=N)N)C(=O)N[C@@H](CCCCN)C(=O)N[C@@H](Cc1ccccc1)C(N)=O [SS-31, D-Arg-2′6′-Dmt-Lys-Phe-NH2] (H-[dR][Dmt]KF-NH2; N-terminus assumed) |  | prevents apoptosis | significantly improved | Reduces Lipid Peroxidation | reduces apoptosis | improves mitochondrial potential | increases viability | dose-dependently prevented loss | dose-dependently increased | dose-dependently increased | dose-dependently increased | reduced the number of cells showing caspase-9 staining | dose-dependently reduced | significantly ameliorated | markedly reduced | markedly reduced | 5 of ten | did not result in return of hyperglycemia | ≤ 1
